Experimental data taken from PMC8036666, “Biological and Physico-Chemical Characteristics of Arginine-Rich Peptide Gemini Surfactants with Lysine and Cystine Spacers” (International Journal of Molecular Sciences, 2021).
Converted amounts (≈) assume the structure as drawn. Where two headings read alike, the source gives them in different places. Marks after values point to notes of the source that are not given here. Where a SMILES comes first, the peptide text is derived from it. Bridges are numbered along the chain shown (N, C = ends). Roman numbers before positions name the chains, in order. Side-chain parts run from the residue outwards. The star is where a group is joined. Myristoyl = CCCCCCCCCCCCCC(=O)*; Lauroyl = CCCCCCCCCCCC(=O)*; Decanoyl = CCCCCCCCCC(=O)*; Octanoyl = CCCCCCCC(=O)*

What was measured:
[1] = system: human red blood cells (hRBCs); conditions: cited from earlier work
[2] = system: E. coli ML-35 (ATCC 43827)
Text: (§1) The permeabilization of E. coli ML-35 (ATCC 43827) membranes was studied for selected compounds (A4, B2, C2, B7, and C7) to compare their activity and membrane disruption over time. […] For OM and IM permeabilization, CENTA and ONPG were used, respectively. The permeabilization of OM causes the release of periplasmic β-lactamase, which hydrolyzes CENTA’s β-lactam ring to form a chromophore, 2-nitro-5-thiobenzoate (TNB) anion, while the disruption of IM results in the release of β-galactosidase, which hydrolyzes ONPG into galactose and a chromophore, ortho-nitrophenol (ONP). Both products of enzymatic reaction absorb light at 405 nm.
(§2) The MICs were determined by the broth microdilution method according to the Clinical and Laboratory Standard Institute guidelines. For this purpose, initial inoculums of bacteria (5 × 10^5 CFU/mL) in MHB and yeasts (2 × 10^3 CFU/mL) in RPMI-1640 with 2% D-glucose were exposed to the ranging concentration of lipopeptides (0.5–256 μg/mL) and incubated at 37 °C for 18 h and 24 h, respectively. The experiments were conducted on 96-well microtiter polystyrene plates (Kartell, Noviglio, Italy). The growth was assessed visually after incubation, and the MIC was assumed as the lowest peptide concentration at which a noticeable growth of microorganisms was inhibited. All experiments were conducted in triplicate.
Inner and outer membranes permeabilization kinetics were evaluated using Escherichia coli ML-35 (ATCC 43827) and chromogenic substrates—CENTA (BioVision, Milpitas, CA, USA) and o-nitrophenyl-β-d-galactopyranoside (ONPG) (Sigma-Aldrich, Steinheim, Germany), as described previously. To examine OM permeabilization, CENTA was used as a β-lactamase substrate. In effect of OM permeabilization, the enzyme can hydrolyze CENTA’s β-lactam ring. The resulting color change (2-nitro-5-thiobenzoate anion, TNB^-) could be measured spectrophotometrically at 405 nm. The IM permeabilization was monitored with ONPG, which is a chromogenic β-galactosidase substrate. The product of this reaction ([…]) was measured spectrophotometrically at 405 nm (Multiskan GO Microplate Spectrophotometer, Thermo Fisher Scientific, Vantaa, Finland). […] Bacteria were incubated in lysogeny broth medium (LB; Biocorp, Warszawa, Poland) for 24 h at 37 °C. Subsequently, the cells were diluted in a fresh LB medium and incubated at 37 °C up to a mid-log phase (ca. 3 h). The culture was centrifuged (3 min, 1100× g) and rinsed twice with a PBS. The bacteria were resuspended in PBS up to a concentration of 5 × 10^6 CFU/mL. The final concentration of ONPG and CENTA was 1.5 mM and 0.15 mM, respectively. The ONPG/CENTA in PBS (Sigma-Aldrich, Steinheim, Germany) was used as a negative control. […] Readings were taken every 15 min for 3 h at 37 °C [125, 142, 143, 144]. Experiments were performed in triplicate on 96-well flat bottom microtiter polystyrene plates.

S. aureus ATCC 33591 = assay type: cell-based, Staphylococcus aureus
Method: (§3) Minimal inhibitory concentrations of lipopeptides were determined in the presence of human serum to evaluate the effect of enzymatic degradation and protein binding of lipopeptides on antimicrobial activity. Serum concentrations were 1% and 10% (v/v). S. aureus (ATCC 33591), P. aeruginosa (ATCC 9027), and C. glabrata (ATCC 15126) were selected to this study.
as §2
(§4) The MICs were determined in the presence of normal human serum (NHS; Sigma-Aldrich, Human Serum, Normal) in concentrations of 1 and 10% (v/v). NHS was stored frozen at −20 °C and thawed just before use. Microorganisms were cultivated as described in 3.4.1. Serial dilutions of compounds, inoculum density, medium, and incubation conditions were prepared as described in Section 3.4.2. Stock solutions of test compounds were prepared in appropriate culture medium.

[3] = system: E. coli ML-35 (ATCC 43827); test: Inner membrane (IM) permeabilization kinetics, ONPG; assay type: cell-based, Escherichia coli; conditions: for ti (t2), incubation time at the intersection of two tangents, IM permeabilization: 32 µg/mL; for ti (t1), incubation time at the intersection of two tangents, IM permeabilization: 64 µg/mL
Text: as §1
Inner and outer membranes permeabilization kinetics were evaluated using Escherichia coli ML-35 (ATCC 43827) and chromogenic substrates—CENTA (BioVision, Milpitas, CA, USA) and o-nitrophenyl-β-d-galactopyranoside (ONPG) (Sigma-Aldrich, Steinheim, Germany), as described previously. To examine OM permeabilization, CENTA was used as a β-lactamase substrate. In effect of OM permeabilization, the enzyme can hydrolyze CENTA’s β-lactam ring.

P. aeruginosa ATCC 9027 = assay type: cell-based, Pseudomonas aeruginosa
Method: as §3, §2, §4

C. glabrata ATCC 15126 = assay type: cell-based, Candida glabrata
Method: as §3, §2, §4

Compound | MIC E. coli ML-35 (ATCC 43827) [2] [µg/mL] | MIC S. aureus ATCC 33591 (S. aureus ATCC 33591; human serum 10% (v/v)) [µg/mL] | MIC P. aeruginosa ATCC 9027 (P. aeruginosa ATCC 9027; human serum 10% (v/v)) [µg/mL] | MIC C. glabrata ATCC 15126 (C. glabrata ATCC 15126; human serum 10% (v/v)) [µg/mL] | further results
CCCCCCCC(=O)N[C@@H](CCCNC(=N)N)C(=O)N[C@@H](CCCNC(=N)N)C(N)=O [Compound A1, C8-RR-NH2] (Octanoyl-Arg-Arg-NH2) | – | – | – | – | HC50 [1]: >256 * µg/mL
CCCCCCCCCC(=O)N[C@@H](CCCNC(=N)N)C(=O)N[C@@H](CCCNC(=N)N)C(N)=O [Compound A2, C10-RR-NH2] (Decanoyl-Arg-Arg-NH2) | – | – | – | – | HC50 [1]: >256 * µg/mL
CCCCCCCCCCCC(=O)N[C@@H](CCCNC(=N)N)C(=O)N[C@@H](CCCNC(=N)N)C(N)=O [Compound A3, C12-RR-NH2] (Lauroyl-Arg-Arg-NH2) | – | – | – | – | HC50 [1]: >256 * µg/mL
CCCCCCCCCCCCCC(=O)N[C@@H](CCCNC(=N)N)C(=O)N[C@@H](CCCNC(=N)N)C(N)=O [Compound A4, C14-RR-NH2] (Myristoyl-Arg-Arg-NH2) | 32 (≈ 59.3 µM) | 64 (≈ 119 µM) | 256 (≈ 474 µM) | 256 (≈ 474 µM) | ti (t2), incubation time at the intersection of two tangents, IM permeabilization [3]: 77.6 min; ti (t1), incubation time at the intersection of two tangents, IM permeabilization [3]: 39.0 min
CCCCCCCCCC(=O)N[C@@H](CCCNC(=N)N)C(=O)N[C@@H](CCCNC(=N)N)C(=O)NCCCC[C@H](NC(=O)[C@H](CCCNC(=N)N)NC(=O)[C@H](CCCNC(=N)N)NC(=O)CCCCCCCCC)C(N)=O [Compound B2] (Decanoyl-Arg-Arg-Lys([Arg-Arg-Decanoyl])-NH2) | 32 (≈ 29.7 µM) | – | – | – | –
CCCCCCCCCCCC(=O)N[C@@H](CCCNC(=N)N)C(=O)N[C@@H](CCCNC(=N)N)C(=O)NCCCC[C@H](NC(=O)[C@H](CCCNC(=N)N)NC(=O)[C@H](CCCNC(=N)N)NC(=O)CCCCCCCCCCC)C(N)=O [Compound B3] (Lauroyl-Arg-Arg-Lys([Arg-Arg-Lauroyl])-NH2) | – | 16 (≈ 14.1 µM) | 64 (≈ 56.4 µM) | > 256 | –
CCCCCCC(CCCC)C(=O)N[C@@H](CCCNC(=N)N)C(=O)N[C@@H](CCCNC(=N)N)C(=O)NCCCC[C@H](NC(=O)[C@H](CCCNC(=N)N)NC(=O)[C@H](CCCNC(=N)N)NC(=O)C(CCCC)CCCCCC)C(N)=O (some centres unmarked) [Compound B7] | 32 (≈ 28.2 µM) | 8 (≈ 7.05 µM) | 128 (≈ 113 µM) | 64 (≈ 56.4 µM) | –
CCCCCCCCCC(=O)N[C@@H](CCCNC(=N)N)C(=O)N[C@@H](CCCNC(=N)N)C(=O)N[C@@H](CSSC[C@H](NC(=O)[C@H](CCCNC(=N)N)NC(=O)[C@H](CCCNC(=N)N)NC(=O)CCCCCCCCC)C(N)=O)C(N)=O [Compound C2] (I: Decanoyl-Arg-Arg-Cys-NH2 / II: Decanoyl-Arg-Arg-Cys-NH2; disulfide I:3-II:3) | 32 (≈ 27.3 µM) | – | – | – | ti (t2), incubation time at the intersection of two tangents, IM permeabilization [3]: 45.7 min; ti (t1), incubation time at the intersection of two tangents, IM permeabilization [3]: 42.0 min
CCCCCCCCCCCC(=O)N[C@@H](CCCNC(=N)N)C(=O)N[C@@H](CCCNC(=N)N)C(=O)N[C@@H](CSSC[C@H](NC(=O)[C@H](CCCNC(=N)N)NC(=O)[C@H](CCCNC(=N)N)NC(=O)CCCCCCCCCCC)C(N)=O)C(N)=O [Compound C3] (I: Lauroyl-Arg-Arg-Cys-NH2 / II: Lauroyl-Arg-Arg-Cys-NH2; disulfide I:3-II:3) | – | 32 (≈ 26.1 µM) | 256 (≈ 209 µM) | > 256 | –
CCCCCCCC(=O)N[C@@H](Cc1ccccc1)C(=O)N[C@@H](CCCNC(=N)N)C(=O)N[C@@H](CCCNC(=N)N)C(=O)N[C@@H](CSSC[C@H](NC(=O)[C@H](CCCNC(=N)N)NC(=O)[C@H](CCCNC(=N)N)NC(=O)[C@H](Cc1ccccc1)NC(=O)CCCCCCC)C(N)=O)C(N)=O [Compound C5] (I: Octanoyl-FRRC-NH2 / II: Octanoyl-FRRC-NH2; disulfide I:4-II:4) | – | 256 (≈ 182 µM) | >256 | >256 | MIC S. aureus ATCC 33591 (S. aureus ATCC 33591; human serum 0% (v/v)): 2 µg/mL (≈ 1.42 µM); MIC S. aureus ATCC 33591 (S. aureus ATCC 33591; human serum 1% (v/v)): 64 µg/mL (≈ 45.4 µM); MIC P. aeruginosa ATCC 9027 (P. aeruginosa ATCC 9027; human serum 0% (v/v)): 8 µg/mL (≈ 5.67 µM); MIC P. aeruginosa ATCC 9027 (P. aeruginosa ATCC 9027; human serum 1% (v/v)): 128 µg/mL (≈ 90.8 µM); MIC C. glabrata ATCC 15126 (C. glabrata ATCC 15126; human serum 0% (v/v)): 8 µg/mL (≈ 5.67 µM); MIC C. glabrata ATCC 15126 (C. glabrata ATCC 15126; human serum 1% (v/v)): 128 µg/mL (≈ 90.8 µM)
CCCCCCC(CCCC)C(=O)N[C@@H](CCCNC(=N)N)C(=O)N[C@@H](CCCNC(=N)N)C(=O)N[C@@H](CSSC[C@H](NC(=O)[C@H](CCCNC(=N)N)NC(=O)[C@H](CCCNC(=N)N)NC(=O)C(CCCC)CCCCCC)C(N)=O)C(N)=O (some centres unmarked) [Compound C7] | 64 (≈ 52.1 µM) | 64 (≈ 52.1 µM) | 256 (≈ 209 µM) | 256 (≈ 209 µM) | ti (t2), incubation time at the intersection of two tangents, IM permeabilization [3]: 68.6 min; ti (t1), incubation time at the intersection of two tangents, IM permeabilization [3]: 43.9 min
